Results reported in US20200155475A1, “Transdermal Drug Delivery System” (Avro Life Sciences, Inc., priority 2017, published 2020).

How the values were obtained:
[1] = Experimental: (§1) Modified Franz Diffusion Cells were filled with 55 ml of phosphate buffer, and a skin simulating membrane was placed in each cell at air-water interface and secured with a holed cap. The cells were placed into a water bath and the temperature was equilibrated to 38° C. The drug-loaded patch was gently placed onto the membrane and pressed down lightly. At different time points, the drug solution was collected and replaced with fresh buffer, and ultraviolet (UV) absorbance was measured at 200-300 nm with clean quartz cuvettes, using standard curves to determine drug concentrations and cumulative drug release percentages over time.
as §1, with “The permeation or flux of several drugs transdermally delivered to the skin was measured in vitro as a function of time using an artificial skin simulating membrane attached to a Franz diffusion cell at air-water interface. […] Modified” for “Modified”

[2] = Percentage diffusion of 4-aminopyridine through the transdermal drug delivery system over time; assay type: in vitro ADME
Experimental: (§2) The patch in the transdermal drug delivery system consisted of 23% (w/w) glycerol, 16% (w/w) gum Arabic, 11% (w/w) medium molecular weight chitosan, and 48% (w/w) lactic acid. The patch was prepared by casting the liquid matrix gel upon a suitable Teflon backing layer and drying for 18 hours at 55° C. The resulting diffusion profiles were obtained by conducting the same experiment three times. The patch samples indicate the number of times that the same experiment was conducted.
The patch in the transdermal drug delivery system consisted of 50% (w/w) glycerol, 14% (w/w) PVP, 18% (w/w) medium molecular weight chitosan, and 18% (w/w) lactic acid. The patch was prepared by casting the liquid matrix gel upon a suitable Teflon backing layer and drying for 3 hours at 80° C. The resulting diffusion profiles were obtained by conducting the same experiment eight times. The patch samples indicate the number of times that the same experiment was conducted.
as §2, with “36%” for “23%”, “15.3% PVP, 0.7%” for “16%”, “9.5%” for “11%”, “38.5%” for “48%”, “5” for “18”, “80°” for “55°”
The percentage diffusion of 4-aminopyridine through the transdermal drug delivery system provided herein was measured over time, using different patch compositions. […] The patch was prepared by casting the liquid matrix gel upon a suitable Teflon backing layer and drying for 18 hours at 55° C.
The patch was prepared by casting the liquid matrix gel upon a suitable Teflon backing layer and drying for 3 hours at 80° C.
The patch was prepared by casting the liquid matrix gel upon a suitable Teflon backing layer and drying for 5 hours at 80° C.

[3] = Further experiments: permeation of small molecules through the patch matrix; conditions: molecules trapped in polymer matrix

SMILES | diffusion of drug from the patch through skin simulating membrane over time (system permeable / impermeable) [1] | permeation into skin and bloodstream through the patch matrix [3] | further results
Nc1ccncc1 [4-aminopyridine] | permeable | – | permeation and diffusion through patch over time ([2]; patch: 23% glycerol, 16% gum Arabic, 11% medium MW chitosan, 48% lactic acid, dried 18 hours at 55° C., FIG. 4): allows permeation and diffusion; permeation and diffusion through patch over time ([2]; patch: 36% glycerol, 15.3% PVP, 0.7% gum Arabic, 9.5% medium MW chitosan, 38.5% lactic acid, dried 5 hours at 80° C., FIG. 6): allows permeation and diffusion; permeation and diffusion through patch over time ([2]; patch: 50% glycerol, 14% PVP, 18% medium MW chitosan, 18% lactic acid, dried 3 hours at 80° C., FIG. 5): allows permeation and diffusion
O=C1CCc2ccc(OCCCCN3CCN(c4cccc(Cl)c4Cl)CC3)cc2N1 [aripiprazole, Aripiprazole] | impermeable | – | –
CC(NCCn1cnc2c1c(=O)n(C)c(=O)n2C)C(O)c1ccccc1 (stereo not shown) [cafedrine] | – | cannot permeate | –
CN(C)CCC[C@@]1(c2ccc(F)cc2)OCc2cc(C#N)ccc21.O=C(O)C(=O)O [escitalopram oxalate, Escitalopram Oxalate] | permeable | – | –
CC(Cc1ccccc1)NCCn1cnc2c1c(=O)n(C)c(=O)n2C (stereo not shown) [fenethylline] | – | cannot permeate | –
CC(=O)CCCCn1c(=O)c2c(ncn2C)n(C)c1=O [pentoxifyline] | – | cannot permeate | –
Cn1c(=O)c2c(ncn2CCNCC(O)c2ccc(O)c(O)c2)n(C)c1=O (stereo not shown) [theodrenaline] | – | cannot permeate | –
